{"source": "patent US20100203001A1", "about": "“PROCESS FOR FORMING DISULFIDE BRIDGES” (APLAGEN GMBH, priority 2007, published 2010)", "key": {"[1]": {"assay": "tests of the capacity to promote the formation of disulfide bridges", "assay_type": "biochemical", "experimental": "The tests were carried out as described previously (see above). The substance tested and the amounts tested are stated in each case."}, "BB57": {"test_system": "BB57", "assay": "cyclization (oxidation) of EPO mimetic peptide BB57 to BB57C in air in water, monitored by HPLC or Ellman's test", "assay_type": "biochemical"}, "human hair": {"test_system": "human hair", "assay": "oxidation of reduced human hair by heterocyclic compound with metal ions, thiol groups by Ellman's reagent", "experimental": "To this end, for each measuring point the disulfide bridges of 5 mg hair were first reduced using ammonium thioglycolate/ammonium thiolactate (commercially available formulations for permanent waves) in order to open them. Subsequently, the reduction solution is removed and the hair was washed with water several times. Then, the hair was subjected to the different oxidation mixtures in order to again close the disulfide bridges. After filtrating these solutions, the amount of thiol groups was determined using the Ellman's reagent. Thereby, a statement on the speed and efficiency of the oxidation step and thus the renewed closure of the disulfide bridges can be made.\nIn several experiments combinations of different metal additives in place of higher amounts of a single salt component are also used. The amounts in the mixture “artificial tap water” described below are based on the maximum values of the regulation for tap water of the FRG, wherein the following combination of metal ions was used: 0.2 mg/L iron ([…], 5 mg/L zinc (Zn^2+), 2 mg/L copper (Cu^2+) and some hardening components 100 mg/L calcium (Ca^2+) and 50 mg/L magnesium (Mg^2+)."}, "EPO mimetic peptide": {"test_system": "EPO mimetic peptide", "assay": "cyclization of an EPO mimetic peptide that can only be cyclized with great difficulty", "assay_type": "biochemical", "conditions": "10 mg/ml caffeine", "experimental": "Some of the EPO mimetic peptides can only be cyclized with great difficulty. An example is the following peptide:\nThe yield after approx. 21 h in solution was already >90%."}, "hair": {"test_system": "hair", "assay": "oxidation of hair reduced with ammonium thioglycolate Wave-Lotion, free thiol groups by Ellman's reagent (412 nm)", "conditions": "air, room temperature, 3 days", "experimental": "The solution is removed and the hair is then washed 6 times with 400 μl H2O each time.\nFor determination of the free thiol groups still remaining, after removing the reaction solution the hair is reacted with fEllman's reagent (5,5′-dithiobis(2-nitrobenzoic acid), DTNB). […] The hair samples are put in 200 μl each of 100 mM phosphate buffer, pH 8.0 and 1 mM EDTA, and 300 μl of a 1 mM DTNB solution in the same EDTA-containing buffer. The solution is analyzed after a few minutes in a UV-Vis spectrometer."}, "oxytocin, reduced (OxyR)": {"target": "oxytocin, reduced (OxyR) (Homo sapiens, UniProt P01178)", "assay": "cyclization of reduced oxytocin-derived peptide (OxyR) to oxytocin (Oxy) in air, HPLC", "assay_type": "biochemical", "conditions": "GSSG optionally added with caffeine", "experimental": "The reaction mixture was analyzed by HPLC at regular intervals, in order to determine the contents of OxyR and the product oxytocin (Oxy)."}, "[2]": {"conditions": "in combination with artificial tap water salt mixture"}, "[3]": {"conditions": "single agent in water (10 mg/ml caffeine or 5 mg/ml GSSG)"}}, "note": "Entries after “also recorded” stand apart in the source; their conditions may differ. Read-outs that look alike come from different tables or passages of the source."}
{"molecule": "O=c1ccc(=O)[nH][nH]1", "note": "[1,2-dihydro-3,6-pyridazinedione]", "values": [{"measurement": "capacity to promote the formation of disulfide bridges", "setting": "[1]", "result": "active"}]}
{"molecule": "Cn1ccc(=O)[nH]c1=O", "note": "[1-methyl-uracil]", "values": [{"measurement": "capacity to promote the formation of disulfide bridges", "setting": "[1]", "result": "good activity"}]}
{"molecule": "Nc1ccnc(N)n1", "note": "[2,4-diaminopyrimidine]", "values": [{"measurement": "capacity to promote the formation of disulfide bridges", "setting": "[1]", "result": "do not have the capacity to promote the formation of disulfide bridges"}]}
{"molecule": "Cc1cc(O)nc(O)n1", "note": "[2,4-dihydroxy-6-methylpyrimidine]", "values": [{"measurement": "capacity to promote the formation of disulfide bridges", "setting": "[1]", "result": "active"}]}
{"molecule": "Cc1cc(O)nc(C)n1", "note": "[2,4-dimethyl-6-hydroxypyrimidine]", "values": [{"measurement": "capacity to promote the formation of disulfide bridges", "setting": "[1]", "result": "active"}]}
{"molecule": "Cc1cc(O)nc(C(C)C)n1", "note": "[2-isopropyl-6-methyl-4-pyrimidinol]", "values": [{"measurement": "capacity to promote the formation of disulfide bridges", "setting": "[1]", "result": "active"}]}
{"molecule": "Cc1nc(O)cc(O)n1", "note": "[4,6-dihydroxy-2-methylpyrimidine]", "values": [{"measurement": "capacity to promote the formation of disulfide bridges", "setting": "[1]", "result": "active"}]}
{"molecule": "Oc1cc(O)ncn1", "note": "[4,6-dihydroxy-pyrimidine]", "values": [{"measurement": "capacity to promote the formation of disulfide bridges", "setting": "[1]", "result": "active"}]}
{"molecule": "O=C(O)CN(CCN(CC(=O)O)CC(=O)O)CC(=O)O", "note": "[EDTA, ethylenediaminetetraacetic acid]", "values": [{"measurement": "effect of complexing agent on the strong effect of the iron ions", "setting": "BB57; alloxan plus iron ions (3 μM) with two equivalents EDTA", "result": "slightly weakened"}]}
{"molecule": "O=C1NC(=O)C(=O)C(=O)N1", "note": "[alloxan, alloxan monohydrate]", "values": [{"measurement": "effect of iron(III) ions on oxidation", "setting": "BB57", "result": "accelerating effect"}, {"measurement": "reaction time", "setting": "BB57", "result": "less than an hour"}, {"measurement": "time until almost completely cyclised", "setting": "BB57", "result": "about 2 h"}, {"measurement": "reverse oxidation of the thiols in hair", "setting": "human hair; 0.1% alloxan solution with low amounts of iron(III) ions, after 10 minutes", "result": "almost complete reverse oxidation"}, {"measurement": "advantage due to the addition of salt", "setting": "human hair; alloxan with iron(III) chloride or artificial tap water, control after 10 minutes", "result": "small advantage"}, {"measurement": "oxidation of reduced hair", "setting": "human hair; [2]", "result": "completely oxidize the hair"}, {"measurement": "capacity to promote the formation of disulfide bridges", "setting": "[1]", "result": "Active"}]}
{"molecule": "Nc1cnccn1", "note": "[aminopyrazine]", "values": [{"measurement": "capacity to promote the formation of disulfide bridges", "setting": "[1]", "result": "do not have the capacity to promote the formation of disulfide bridges"}]}
{"molecule": "O=C1CC(=O)NC(=O)N1", "note": "[barbituric acid]", "values": [{"measurement": "capacity to promote the formation of disulfide bridges", "setting": "[1]", "result": "Active"}]}
{"molecule": "Cn1c(=O)c2c(ncn2C)n(C)c1=O", "note": "[caffeine]", "values": [{"measurement": "reaction time until complete conversion", "setting": "BB57", "result": "about 10 h"}, {"measurement": "time of cyclisation", "setting": "BB57", "result": "about an hour; also recorded: shortened"}, {"measurement": "time until complete conversion", "setting": "BB57", "result": "about 15 h"}, {"measurement": "time until conversion is quantitative", "setting": "BB57", "result": "ten"}, {"measurement": "time until oxidation is completed", "setting": "BB57", "result": "approx. 24 h"}, {"measurement": "time until cyclization successful", "setting": "EPO mimetic peptide", "result": "≤ 24", "unit": "h"}, {"measurement": "oxidation of the thiol groups of reduced hair", "setting": "hair; combination 10 mg/ml caffeine and 5 mg/ml GSSG", "result": "almost quantitative oxidation of the thiol groups"}, {"measurement": "oxidation of the thiol groups of reduced hair", "setting": "hair; [3]", "result": "partial oxidation of the thiol groups"}, {"measurement": "strength as catalysator on hair", "setting": "human hair; comparison with alloxan", "result": "weaker compared to alloxan"}, {"measurement": "duration of the reaction compared with alloxan", "setting": "human hair; [2]", "result": "takes longer"}, {"measurement": "oxidation of reduced hair", "setting": "human hair; [2]", "result": "completely oxidize the hair"}]}
{"molecule": "O=S(=O)([O-])[O-].[Fe+2]", "note": "[iron(II) sulfate]", "values": [{"measurement": "accelerating effect on the cyclisation of BB57", "setting": "BB57", "result": "no activity"}]}
{"molecule": "Nc1nc(N)nc(N)n1", "note": "[melamine]", "values": [{"measurement": "capacity to promote the formation of disulfide bridges", "setting": "[1]", "result": "do not have the capacity to promote the formation of disulfide bridges"}]}
{"molecule": "Nc1cc(N2CCCCC2)nc(N)[n+]1[O-]", "note": "[minoxidil, 6-(1-piperidinyl)-2,4-pyrimidinediamine-3-oxide]", "values": [{"measurement": "time until oxidation is completed", "setting": "BB57; 0.7 mg BB57 and 0.3 mg substance in 1 ml distilled water, in the air, HPLC", "result": "approx. 29 h"}]}
{"molecule": "NC(=O)c1cnccn1", "note": "[pyrazine amide]", "values": [{"measurement": "capacity to promote the formation of disulfide bridges", "setting": "[1]", "result": "do not have the capacity to promote the formation of disulfide bridges"}]}
{"molecule": "O=C(O)c1cnccn1", "note": "[pyrazine-carboxylic acid]", "values": [{"measurement": "capacity to promote the formation of disulfide bridges", "setting": "[1]", "result": "do not have the capacity to promote the formation of disulfide bridges"}]}
{"molecule": "O=C(O)c1cc(O)nc(O)n1", "note": "[uracil-6-carboxylic acid]", "values": [{"measurement": "capacity to promote the formation of disulfide bridges", "setting": "[1]", "result": "active"}]}
{"molecule": "O=C1NC(=O)C(=NO)C(=O)N1", "note": "[violuric acid]", "values": [{"measurement": "capacity to promote the formation of disulfide bridges", "setting": "[1]", "result": "Active"}]}
{"molecule": "glutathione in oxidized form [GSSG]", "values": [{"measurement": "conversion of the peptide", "setting": "BB57", "result": "only takes place slowly"}, {"measurement": "influence on rate or yield", "setting": "oxytocin, reduced (OxyR)", "result": "no influence on rate or yield"}, {"measurement": "oxidation of the thiol groups of reduced hair", "setting": "hair; [3]", "result": "partial oxidation of the thiol groups"}]}
{"molecule": "potassium hexacyanoferrate", "values": [{"measurement": "effect of stable metal ion complex on cyclisation by alloxan", "setting": "BB57; alloxan plus potassium hexacyanoferrate(II) or (III) (30 μM), Ellman's reagent", "result": "accelerating effect"}]}
